Test results published in ChEMBL document CHEMBL3124838, “Discovery of 6-aryl-azabenzimidazoles that inhibit the TBK1/IKK-ε kinases” (Bioorg Med Chem Lett, 2014).

Columns and labels:
[1] = target: RAF proto-oncogene serine/threonine-protein kinase (Homo sapiens) (UniProt P04049); assay: Inhibition of human c-RAF assessed as residual activity at 1 uM relative to control
[2] = target: Phosphatidylinositol 4-phosphate 5-kinase type-1 alpha (Homo sapiens) (UniProt Q99755); assay: Inhibition of human PIP5K1alpha assessed as residual activity at 1 uM relative to control
[3] = target: T1, Dual specificity tyrosine-phosphorylation-regulated kinase 2 (Homo sapiens) (UniProt Q92630); assay: Inhibition of human DYRK2 assessed as residual activity at 1 uM relative to control
T1 sequence (whole entry): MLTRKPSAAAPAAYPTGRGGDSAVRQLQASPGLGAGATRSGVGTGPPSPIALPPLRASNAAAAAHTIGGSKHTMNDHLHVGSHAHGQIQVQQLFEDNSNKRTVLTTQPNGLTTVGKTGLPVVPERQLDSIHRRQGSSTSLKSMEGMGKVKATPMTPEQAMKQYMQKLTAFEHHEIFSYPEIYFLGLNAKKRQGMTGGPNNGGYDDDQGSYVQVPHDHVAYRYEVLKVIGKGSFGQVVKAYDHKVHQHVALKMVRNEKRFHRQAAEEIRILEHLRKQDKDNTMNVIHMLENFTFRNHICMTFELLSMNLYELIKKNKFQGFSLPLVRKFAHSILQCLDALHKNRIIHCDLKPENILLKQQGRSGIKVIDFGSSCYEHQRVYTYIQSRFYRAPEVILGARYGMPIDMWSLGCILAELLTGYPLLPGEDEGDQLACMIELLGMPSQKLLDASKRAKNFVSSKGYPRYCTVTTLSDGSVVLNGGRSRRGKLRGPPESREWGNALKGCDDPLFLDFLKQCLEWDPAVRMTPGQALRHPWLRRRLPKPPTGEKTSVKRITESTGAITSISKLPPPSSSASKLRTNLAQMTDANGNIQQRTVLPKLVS

[4] = target: T2, Serine/threonine-protein kinase ULK2 (Homo sapiens) (UniProt Q8IYT8); assay: Inhibition of human ULK2 assessed as residual activity at 1 uM relative to control
T2 sequence (whole entry): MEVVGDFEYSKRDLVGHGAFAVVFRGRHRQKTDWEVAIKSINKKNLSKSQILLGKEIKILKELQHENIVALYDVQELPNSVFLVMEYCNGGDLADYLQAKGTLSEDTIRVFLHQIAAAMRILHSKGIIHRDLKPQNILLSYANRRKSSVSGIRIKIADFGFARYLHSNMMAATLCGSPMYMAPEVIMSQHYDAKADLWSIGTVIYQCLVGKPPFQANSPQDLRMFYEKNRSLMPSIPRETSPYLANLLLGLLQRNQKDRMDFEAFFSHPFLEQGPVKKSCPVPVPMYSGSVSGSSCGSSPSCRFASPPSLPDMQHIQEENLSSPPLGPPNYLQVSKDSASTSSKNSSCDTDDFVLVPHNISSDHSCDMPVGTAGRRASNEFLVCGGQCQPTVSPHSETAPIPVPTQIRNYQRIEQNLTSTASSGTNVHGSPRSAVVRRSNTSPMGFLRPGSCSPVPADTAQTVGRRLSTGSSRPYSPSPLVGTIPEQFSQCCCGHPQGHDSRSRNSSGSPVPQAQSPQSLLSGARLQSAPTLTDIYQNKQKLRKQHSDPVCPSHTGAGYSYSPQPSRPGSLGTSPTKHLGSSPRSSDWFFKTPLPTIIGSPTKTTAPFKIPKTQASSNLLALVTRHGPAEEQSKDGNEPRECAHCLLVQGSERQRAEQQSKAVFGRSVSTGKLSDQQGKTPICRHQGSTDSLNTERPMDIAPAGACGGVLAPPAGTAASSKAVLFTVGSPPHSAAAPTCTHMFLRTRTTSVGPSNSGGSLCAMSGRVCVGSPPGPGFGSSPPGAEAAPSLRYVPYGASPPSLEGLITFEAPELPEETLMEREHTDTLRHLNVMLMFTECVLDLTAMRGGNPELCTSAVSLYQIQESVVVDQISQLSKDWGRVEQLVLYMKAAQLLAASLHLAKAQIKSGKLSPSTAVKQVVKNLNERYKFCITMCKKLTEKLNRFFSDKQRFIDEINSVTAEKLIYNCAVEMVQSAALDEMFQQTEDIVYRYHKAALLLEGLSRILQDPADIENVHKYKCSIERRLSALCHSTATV

[5] = target: Fibroblast growth factor receptor 2 (Homo sapiens) (UniProt P21802); assay: Inhibition of human FGFR2 assessed as residual activity at 1 uM relative to control
[6] = target: Serine/threonine-protein kinase PAK 4 (Homo sapiens) (UniProt O96013); assay: Inhibition of human PAK4 assessed as residual activity at 1 uM relative to control
[7] = target: T3, Myotonin-protein kinase (Homo sapiens) (UniProt Q09013); assay: Inhibition of human DMPK assessed as residual activity at 1 uM relative to control
T3 sequence (whole entry): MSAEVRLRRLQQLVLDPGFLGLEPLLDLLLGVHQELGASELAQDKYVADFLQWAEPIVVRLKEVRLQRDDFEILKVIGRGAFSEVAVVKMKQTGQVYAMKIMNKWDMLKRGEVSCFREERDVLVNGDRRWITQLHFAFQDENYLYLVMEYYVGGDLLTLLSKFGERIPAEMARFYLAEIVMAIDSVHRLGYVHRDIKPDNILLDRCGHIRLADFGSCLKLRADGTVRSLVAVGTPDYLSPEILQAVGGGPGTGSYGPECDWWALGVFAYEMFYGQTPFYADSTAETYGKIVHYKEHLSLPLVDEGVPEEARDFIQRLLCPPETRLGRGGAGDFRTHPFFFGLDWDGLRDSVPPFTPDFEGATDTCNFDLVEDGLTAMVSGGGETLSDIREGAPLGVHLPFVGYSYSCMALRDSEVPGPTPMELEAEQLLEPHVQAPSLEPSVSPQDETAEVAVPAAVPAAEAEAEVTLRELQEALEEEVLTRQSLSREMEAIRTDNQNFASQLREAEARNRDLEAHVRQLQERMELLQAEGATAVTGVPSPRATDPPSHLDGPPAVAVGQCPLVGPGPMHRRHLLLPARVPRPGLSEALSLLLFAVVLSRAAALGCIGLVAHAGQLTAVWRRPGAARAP

Sequence of Fibroblast growth factor receptor 2 (Homo sapiens) (P21802 22-821 limits assumed): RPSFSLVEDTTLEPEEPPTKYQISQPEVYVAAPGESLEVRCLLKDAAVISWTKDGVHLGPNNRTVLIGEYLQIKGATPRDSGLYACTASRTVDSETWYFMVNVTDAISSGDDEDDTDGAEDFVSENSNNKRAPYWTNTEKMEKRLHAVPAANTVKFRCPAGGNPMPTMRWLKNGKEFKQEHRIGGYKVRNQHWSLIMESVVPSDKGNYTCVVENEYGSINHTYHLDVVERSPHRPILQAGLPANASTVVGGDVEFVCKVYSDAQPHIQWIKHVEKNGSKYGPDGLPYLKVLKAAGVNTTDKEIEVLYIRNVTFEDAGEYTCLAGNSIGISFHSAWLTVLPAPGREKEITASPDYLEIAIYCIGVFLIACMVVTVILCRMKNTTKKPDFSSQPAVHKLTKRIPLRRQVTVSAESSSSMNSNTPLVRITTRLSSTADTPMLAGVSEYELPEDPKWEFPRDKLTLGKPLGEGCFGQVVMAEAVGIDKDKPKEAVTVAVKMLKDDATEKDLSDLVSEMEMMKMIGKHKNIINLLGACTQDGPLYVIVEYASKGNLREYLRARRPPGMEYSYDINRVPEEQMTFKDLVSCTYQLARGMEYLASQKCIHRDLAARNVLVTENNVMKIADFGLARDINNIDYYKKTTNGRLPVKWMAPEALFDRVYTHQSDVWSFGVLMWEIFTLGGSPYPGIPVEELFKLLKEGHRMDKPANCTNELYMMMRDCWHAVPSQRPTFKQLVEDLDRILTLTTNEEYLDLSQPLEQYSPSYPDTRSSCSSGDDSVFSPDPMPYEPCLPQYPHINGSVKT
Sequence of Phosphatidylinositol 4-phosphate 5-kinase type-1 alpha (Homo sapiens) (Q99755 whole entry): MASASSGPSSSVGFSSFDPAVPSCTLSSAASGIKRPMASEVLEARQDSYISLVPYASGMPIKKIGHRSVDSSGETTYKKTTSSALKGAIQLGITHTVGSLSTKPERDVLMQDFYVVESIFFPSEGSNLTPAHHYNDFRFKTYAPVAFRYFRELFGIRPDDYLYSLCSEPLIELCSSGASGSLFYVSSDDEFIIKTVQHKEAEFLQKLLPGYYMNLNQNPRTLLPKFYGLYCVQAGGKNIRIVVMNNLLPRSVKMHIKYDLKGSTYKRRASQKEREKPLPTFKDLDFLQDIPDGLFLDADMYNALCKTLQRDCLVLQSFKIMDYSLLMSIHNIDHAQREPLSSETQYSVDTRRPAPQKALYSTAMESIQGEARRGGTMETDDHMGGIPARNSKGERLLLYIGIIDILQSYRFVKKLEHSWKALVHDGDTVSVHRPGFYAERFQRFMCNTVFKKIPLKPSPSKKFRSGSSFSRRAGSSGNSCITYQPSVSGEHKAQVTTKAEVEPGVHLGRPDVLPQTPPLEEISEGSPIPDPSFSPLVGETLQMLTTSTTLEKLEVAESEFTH
Sequence of Serine/threonine-protein kinase PAK 4 (Homo sapiens) (O96013 whole entry, looked up): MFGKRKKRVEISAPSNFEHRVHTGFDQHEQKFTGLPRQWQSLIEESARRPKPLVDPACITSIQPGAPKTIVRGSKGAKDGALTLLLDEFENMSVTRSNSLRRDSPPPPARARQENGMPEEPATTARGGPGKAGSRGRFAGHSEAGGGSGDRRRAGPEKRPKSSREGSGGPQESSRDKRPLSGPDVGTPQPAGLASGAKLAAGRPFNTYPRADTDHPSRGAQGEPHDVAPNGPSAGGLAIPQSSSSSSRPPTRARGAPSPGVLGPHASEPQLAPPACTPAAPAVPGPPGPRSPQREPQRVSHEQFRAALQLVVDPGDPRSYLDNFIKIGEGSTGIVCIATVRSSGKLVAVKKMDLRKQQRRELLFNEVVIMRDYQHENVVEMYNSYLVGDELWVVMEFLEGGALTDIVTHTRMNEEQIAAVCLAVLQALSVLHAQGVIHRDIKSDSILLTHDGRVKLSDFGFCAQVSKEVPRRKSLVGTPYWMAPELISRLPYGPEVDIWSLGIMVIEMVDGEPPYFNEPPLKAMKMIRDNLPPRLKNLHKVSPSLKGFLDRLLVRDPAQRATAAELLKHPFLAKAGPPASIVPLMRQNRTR
Sequence of RAF proto-oncogene serine/threonine-protein kinase (Homo sapiens) (P04049 whole entry): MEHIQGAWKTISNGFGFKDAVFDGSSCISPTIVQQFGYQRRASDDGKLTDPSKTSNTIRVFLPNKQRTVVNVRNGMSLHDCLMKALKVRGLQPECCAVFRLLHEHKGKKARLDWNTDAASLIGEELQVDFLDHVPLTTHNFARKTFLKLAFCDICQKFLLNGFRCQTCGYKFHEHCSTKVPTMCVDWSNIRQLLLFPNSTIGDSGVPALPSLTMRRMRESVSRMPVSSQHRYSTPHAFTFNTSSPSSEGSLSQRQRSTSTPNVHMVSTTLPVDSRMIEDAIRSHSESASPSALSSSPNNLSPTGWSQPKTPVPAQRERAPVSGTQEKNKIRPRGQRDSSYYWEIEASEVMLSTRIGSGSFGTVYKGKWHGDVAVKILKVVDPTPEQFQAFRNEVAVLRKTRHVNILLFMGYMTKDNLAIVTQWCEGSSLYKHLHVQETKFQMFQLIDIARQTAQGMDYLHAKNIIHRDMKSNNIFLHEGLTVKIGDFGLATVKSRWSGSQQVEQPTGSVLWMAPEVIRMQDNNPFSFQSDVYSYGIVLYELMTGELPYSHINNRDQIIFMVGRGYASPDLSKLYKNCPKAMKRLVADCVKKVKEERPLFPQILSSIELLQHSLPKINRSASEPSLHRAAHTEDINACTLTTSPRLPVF

Activity [1]	Activity [2]	Activity [3]	Activity [4]	Activity [5]	Activity [6]	Activity [7]	SMILES
96%	99%	20%	42%	88%	89%	97%	COc1ccc(-c2nc3cc(-c4csc(C(=O)NCC(C)C)c4)cnc3[nH]2)cc1
92%	99%	11%	40%	90%	83%	100%	COc1ccc(-c2nc3cc(-c4csc(C(=O)NCCC(C)C)c4)cnc3[nH]2)cc1
108%	95%	30%	53%	100%	87%	104%	COc1ccc(-c2nc3cc(-c4csc(C(=O)NCC(C)(C)C)c4)cnc3[nH]2)cc1
